Experimental findings from article PMC7144234, “Antiproliferative chromone derivatives induce K562 cell death through endogenous and exogenous pathways” (Journal of Enzyme Inhibition and Medicinal Chemistry, 2020) are described below.

What is called IC50 is the concentration that inhibits the measured activity by half.

The subject of assay [1] is K562 cells. Briefly: Cell apoptosis assay (Annexin V-FITC/PI, flow cytometry). The note with it: 72 h. The assay is classed as cell-based, human. On the procedure: […] 500 µL of binding buffer suspension cells, 5 µL of Annexin V-FITC, and 5 µL of PI were mixed incubated at room temperature, protected from light, and reacted for 5–15 min, then analysed with flow cytometry instrument to detect cell apoptosis.
In general terms: In flow cytometry, cells or beads pass a laser one at a time.

In assay [2] the test system is B16. Nature of the assay: MTT antiproliferative assay, B16. The following applies: 72 h, melanoma B16. The assay is classed as cell-based. As for the experimental part:
(§1) The colorimetric MTT (3-(4,5-dimethylthiazol-2-yl)-2,5-diphenyltetrazolium bromide) assay was used to measure the cell viability of all of the above cell lines following treatment with target hybrids. Exponentially growing cells were added into 96-well plates at a concentration of 2000–4000 cells per well. Following attachment the cells were treated with varying concentrations (64, 16, 4, 1, 0.25, 0.0625 and 0.015625 µM) of target compounds in media and were kept for incubation for 72 h. MTT (20 µL, 5 mg/mL in PBS) was added to each well and the cells were incubated for another 3 h at 37 °C. Then the medium was removed, followed by the addition of 150 µL DMSO for each well. After that, the absorbance (OD) data of each well at 570 nm wavelength were measured by a Microplate Reader (BIO-RAD), and half inhibition rates (IC50) were calculated[59]^,[60].
(In general: Tetrazolium assays rely on reduction of a dye to a coloured formazan, in cell work by metabolically active cells.)

In assay [3] the test system is K562. Nature of the assay: MTT antiproliferative assay, K562. The assay is classed as cell-based, human. The following applies: 72 h, chronic myeloid leukaemia K562. On the procedure: as §1
The test system of assay [4] is Bax. Briefly: Human Apoptosis Array kit, Bax expression in K562 cells. The assay is classed as cell-based. The following applies: K562, 2 µM, 24 h. As for the experimental part: (§2) The relative expression levels of 35 apoptosis-related proteins were evaluated using Human Apoptosis Array kit (R&D Systems, Abingdon, UK) in K562 cells. Proteins were extracted according to the manufacturer’s protocol from cells treated for 24 h with compound 15a (2 µM). The tool is fast, sensitive and economical, with 2.0 ml of array buffer added to each well, followed by array, The capture antibodies are retained in their specific locations, then incubated, transferred, diluted, added to Streptavidin-HRP, shaken. The platform shaker was incubated on the plate for 30 min, then the membrane was removed, 1 ml of the prepared Chemi Reagent Mix was evenly pipetted onto each membrane, incubated, the excess Chemi Reagent Mix was removed, and the membrane was placed in a self-developing film cartridge, exposed to X-ray film for 1–10 min. The positive signals seen on developed film can be quickly identified by placing the transparency overlay template on the array image and aligning it with the pairs of reference spots in three corners of each array. Creating templates, exporting files, averaging signals, finding backgrounds, comparing corresponding signals on the array to determine relative changes in apoptosis-related protein levels.

The test system of assay [5] is L-02. Nature of the assay: MTT assay, normal hepatic L-02 cell line. Format: cell-based. The following applies: human normal hepatic L-02 cell line. As for the experimental part:
as §1

Assay [6] relates to PBMC. Briefly: MTT assay, peripheral blood mononuclear cells. Format: cell-based, human. The note with it: 72 h. As for the experimental part: as §1
The test system of assay [7] is Claspin. Nature of the assay: Human Apoptosis Array kit, claspin expression in K562 cells. Format: cell-based. The note with it: K562, 2 µM, 24 h. On the procedure:
as §2

The subject of assay [8] is MCF-7. Briefly: MTT antiproliferative assay, MCF-7. Format: cell-based, human. The following applies: breast carcinoma MCF-7. On the procedure:
as §1

Assay [9] concerns K562 cells. Briefly: Cell cycle analysis (PI staining, flow cytometry). The assay is classed as cell-based, human. The following applies: 72 h. On the procedure:
The cells in the logarithmic growth phase were digested into six-well plates. The next day, cells were treated with different concentrations (0, 0.8, 1.6, 3.2 µM) of compound 15a. After 72 h, 5 × 10^5 cells were collected and fixed with a volume fraction of 70% ethanol for 2 h (or overnight), washed the fixative with PBS, added 100 µL RNase A in 37 °C water bath for 30 min, and finally 400 µL of PI stain was added, after 30 min under the dark at 4 °C, the cytometry was used to record the red fluorescence at the excitation wavelength of 488 nm, and the cell cycle distribution of the DNA content was evaluated.

Assay [10] has as its system K562 cells. Nature of the assay: Hoechst 33258 staining, morphological analysis. Format: cell-based, human. On the procedure: K562 cells were incubated with different concentrations (0, 0.8, 1.6 and 3.2 µM) of 15a for a period of time, the medium containing the compound was removed, the cell smear was naturally dried, and immersed in 4% paraformaldehyde for 30 min or overnight to improve cell permeability, then soaked in PBS, washed for three times, added appropriate amount of Hoechst 33258 staining solution, fully covered, allowed to stand at room temperature for 10 min, finally immersed in PBS again, washed three times and sealed. Anti-fluorescence quenching after the liquid was sealed, the staining results were observed under a fluorescence microscope.

The subject of assay [11] is HepG2. Briefly: MTT antiproliferative assay, HepG2. The assay is classed as cell-based, human. The note with it: 72 h, hepatoma HepG2. As for the experimental part:
as §1

Assay [12] relates to Catalase. Nature of the assay: Human Apoptosis Array kit, catalase expression in K562 cells. Format: cell-based. The note with it: K562, 2 µM, 24 h. As for the experimental part: as §2
Assay [13] relates to Bad. Briefly: Human Apoptosis Array kit, Bad expression in K562 cells. The assay is classed as cell-based. The following applies: K562, 2 µM, 24 h. As for the experimental part:
as §2

The subject of assay [14] is HCT-116. Briefly: MTT antiproliferative assay, HCT-116. The assay is classed as cell-based, human. The note with it: 72 h, colorectal carcinoma HCT-116. On the procedure: as §1
In assay [15] the test system is HtrA2. Briefly: Human Apoptosis Array kit, HtrA2 expression in K562 cells. The assay is classed as cell-based. The following applies: K562, 2 µM, 24 h. On the procedure:
as §2

Turning to “4-((1-(6-Methoxy-4-oxo-4H-chromene-3-carboxamido)propan-2-yl)oxy)-3-(phenylsulfonyl)-1,2,5-oxadiazole 2-oxide [15a]”, the apoptotic rate in assay [1] (K562, 0.8 µM) is 16.28%; in [1] (K562, 1.6 µM), 20.56%; in assay [1] (K562, 3.2 µM), 51.87%. Also, the half-inhibitory concentration (IC50) in assay [2] was 9.72 ± 0.52 µM; in [3], 1.61 ± 0.18 µM; in [5] (72 h), 36.9 ± 0.62 µM; in assay [6], more than 50 µM; in assay [8] (72 h), 13.7 ± 0.33 µM; in assay [11], 4.86 ± 0.39 µM. The same compound registered an IC50 in assay [14] of 6.74 ± 0.9 µM. For the same compound, the “expression of Bax compared to the control” value in [4] was “increased expression”. Besides, in assay [7], the “expression of Claspin” value is given as “increased”. The “cells in G1 phase” value worked out at 48.84% in assay [9] (K562, 0.8 µM); 41.43% in assay [9] (K562, 1.6 µM); 36.21% in assay [9] (K562, 3.2 µM). Besides, the “cells in G2 phase” value in [9] (K562, 0.8 µM) is recorded as 10.71%; in assay [9] (K562, 1.6 µM), 11.89%; in assay [9] (K562, 3.2 µM), 13.51%. In addition, the “cells in S phase” value in assay [9] (K562, 0.8 µM) worked out at 40.45%; in assay [9] (K562, 1.6 µM), 46.68%; in [9] (K562, 3.2 µM), 50.28%. Besides, the “cell morphology after Hoechst 33258 staining” value was “cell membranes were ruptured and the nuclei were fragmented” in assay [10] (K562, 3.2 µM); “typical apoptotic morphology” in [10] (K562, 0.8 and 1.6 µM). In addition, in assay [12], the “expression of Catalase” value is on record as “up-regulated”. Further, the “expression of Bad compared to the control” value in [13] is “increased expression”. For the same compound, in [15], the “expression level of HtrA2” value is listed as “increased the expression levels”.
On to `COc1ccc2oc(N3CCN(CCOc4no[n+]([O-])c4S(=O)(=O)c4ccccc4)CC3)c(C(=O)O)c(=O)c2c1` [15d, 4-(2-(4-(3-Carboxy-6-methoxy-4-oxo-4H-chromen-2-yl)piperazin-1-yl)ethoxy)-3-(phenylsulfonyl)-1,2,5-oxadiazole 2-oxide], for which the IC50 was 35 ± 1.25 µM in assay [2]; 4.07 ± 0.39 µM in assay [3] (Homo sapiens); more than 50 µM in assay [5] (L02, 72 h); more than 50 µM in assay [6] (Homo sapiens, PBMC); 16.9 ± 1.29 µM in assay [8] (Homo sapiens, MCF7, 72 h); 9.56 ± 2.37 µM in assay [11] (Homo sapiens). The compound further displayed an IC50 in assay [14] (Homo sapiens) of 12.9 ± 1.02 µM.
As for `Cc1ccc2occ(C(=O)O)c(=O)c2c1` [compound 10], the IC50 in assay [2] is more than 50 µM; in [3] (Homo sapiens) it was more than 50 µM; in [5] (L02, 72 h) it was more than 50 µM; in assay [6] (Homo sapiens, PBMC), more than 50 µM; in assay [8] (Homo sapiens, MCF7, 72 h), more than 50 µM; in assay [11] (Homo sapiens) it was more than 50 µM. Also, the IC50 in assay [14] (Homo sapiens) is more than 50 µM.
In the case of `COc1ccc2occ(C(=O)O)c(=O)c2c1` [compound 11], the IC50 in assay [2] is more than 50 µM; in assay [3] (Homo sapiens) it was more than 50 µM; in assay [5] (L02, 72 h), more than 50 µM; in [6] (Homo sapiens, PBMC), more than 50 µM; in [8] (Homo sapiens, MCF7, 72 h), more than 50 µM; in assay [11] (Homo sapiens), more than 50 µM. Also, the IC50 in [14] (Homo sapiens) was more than 50 µM.
